Assay results as given in patent US7144867B2, “Anticancer glycoside compounds” (priority 2004, dated 2006).
Marks after values point to notes of the source that are not given here.

Tests used:
[1] = tested on: AsPC-1 human pancreatic cancer xenografts; assay: AsPC-1 xenografts in athymic mice; type: in vivo; details: 10 μg/kg/day intraperitoneal, 4 weeks
Protocol: Animal Study. Athymic mice (BALB/c nu/nu, 5-week old females) were purchased from Charles River Laboratories (Wilmington, Mass.). Mice were acclimatized to the animal facility for one week prior to receiving xenografts. Xenografts of three million AsPC-1 cells were injected into the flanks of mice. Once visible tumors were evidenced 4–5 days after injection, the animals were divided equally into two groups (6 animals/group) and treated with frondoside A (10 μg/kg/day) or control vehicle (100 μL phosphate-buffered saline, PBS) by intraperitoneal injection. Animal weight and tumor size were recorded every three days. The formula used for tumor volume was (length)H(width)H(length+width/2)H0.526=volume (Naito et al., Int. J. Cancer 58:730 [1994]). After 4-weeks of treatment the animals were euthanized and the tumors were carefully dissected and tumor weights measured.

[2] = tested on: DLD-1 (human colon adenocarcinoma); assay: cells; details: for Percent Growth (Mean ± SEM, n = 2): 72-hour
Protocol: Test Substance and Concentration. Frondoside A (CBR-24) was dissolved in 100% DMSO and then diluted with sterile distilled water to obtain initial working solutions of 10000, 1000, 100, 10, and 1 μM in 40% DMSO. A 100-fold dilution was further made in culture media to generate final assay concentration of 100, 10, 1, 0.1 and 0.01 μM in 0.4% of DMSO.
Cell Line and Culture Media. The tumor cell line DLD-1 (human colon adenocarcinoma), obtained from American Type Culture Collection (ATCC CCL-221), was incubated in 95% air-5% CO2 gas mixture at 37° C. The culture medium used was RPMI 1640 with 10% fetal bovine serum, which was supplemented with 1% Antibiotic-Antimycotic.
Evaluation of anti-proliferation for test substances. Aliquots of 100 μl of cell suspension (about 2.5×10^3 cells/well) were placed in 96-well microtiter plates in an atmosphere of 5% CO2 at 37° C. […] Thus, the final concentration of DMSO was 0.4%. The Frondoside A was evaluated for possible inhibitory effects on cell proliferation at concentrations of 100, 10, 1, 0.1 and 0.01 μM. At the end of incubation, 20 μl of 90% alamarBlue reagent was added to each well for another 6 hour incubation before detection of cell viability by fluorescent intensity. Fluorescent intensity was measured using a Spectrafluor Plus plate reader with excitation at 530 nm and emission at 590 nm.
Determination of IC50, TGI and LC50. The measured results were calculated by the following formula: PG(%)=100%×(Mean Ftest−Mean Ftime0)/(Mean Fctrl−Mean Ftime0) If (Mean Ftest−Mean Ftime0)<0, then PG (%)=100%×(Mean Ftest−Mean Ftime0)/(Mean Ftime0−Mean Fblank) Where: • PG: percent growth • Mean Ftime0=The average of 2 measured fluorescent intensities of reduced alamarBlue at the time just before exposure of cells to the test substance. • Mean Ftest=The average of 2 measured fluorescent intensities of alamarBlue after 72-hour exposure of cells to the test substance. • Mean Fctrl=The average of 2 measured fluorescent intensities of alamarBlue after 72-hour incubation without the test substance. • Mean Fblank=The average of 2 measured fluorescent intensities of alamarBlue in medium without cells after 72-hour incubation.

[3] = tested on: HUVEC (human umbilical vein endothelial cells); assay: Angiogenesis, tube formation on Matrigel; type: cell-based; details: for %, Inhibition of the total tube length (Mean ± SEM, n = 2): HUVEC, 18 hours
Protocol: Test Substance and Concentration.
Cell Line and Culture Media.
Evaluation of anti-proliferation for test substances. Matrigel matrix was thawed, kept on ice at 4° C. and 50 μL transferred to each well of a 96-microwell tissue culture plate. The plate was incubated at 37° C. for at least one hour to allow the matrix solution to solidify before treatment.
Aliquots of 200 μl of (HUVEC) suspension (about 1.5×10^4 cells/well) were placed in 96-well microtiter plate. Two microliters of compound test solution or vehicle (40% DMSO) was then added per well in duplicate and incubated at 5% CO2 at 37° C. for 18 hours. The final concentration of DMSO was 0.4%. […] Failure to form continuous networks between cell bodies in the presence of test substance was photographed and scored as to the extent of tube disruption at a magnification of 40×. […] The minimum inhibitory concentration (MIC) was calculated to assess the effect of the test substance on angiogenesis.

## COC1C(O)C(CO)OC(OC2C(O)COC(OC3C(C)OC(OC4C(OC5CCC6(C)C7CCC89C(=O)OC(C)(CCCC(C)C)C8C(OC(C)=O)CC9(C)C7=CCC6C5(C)C)OCC(OS(=O)(=O)[O-])C4O)C(OC4OCC(O)C(O)C4O)C3O)C2O)C1O.[Na+] [Frondoside A, 3-O-methyl-β-D-glucopyranosyl-(1→3)-β-D-xylopyranosyl-(1→4)-[β-D-xylopyranosyl-(1→2)]-β-D-quinovopyranosyl-(1→2)-4-O-sodium sulfate-β-D-xylopyranosyl-3-O-holost-7(8)-en-3β-ol-16β-O-acetate]
[1]; athymic mice
  body weights of control and treated animals: no significant difference
  toxicity through the treatment period: No toxicity was seen
[1]; athymic mice (FIG. 6)
  growth of subcutaneously transplanted AsPC-1 cells (tumor volume and tumor weight): markedly inhibited the growth
[2]; 10 μM and 100 μM (≦50% of cell proliferation)
  growth inhibition of DLD-1 cells relative to the vehicle-treated control: significant growth inhibition
[2]; DLD-1, 0.01 μM
  Percent Growth (Mean ± SEM, n = 2): 93 ± 5%
[2]; DLD-1, 0.1 μM
  Percent Growth (Mean ± SEM, n = 2): 84 ± 11%
[2]; DLD-1, 1 μM
  Percent Growth (Mean ± SEM, n = 2): 79 ± 5%
[2]; DLD-1, 10 μM
  Percent Growth (Mean ± SEM, n = 2): 12 ± 0%
[2]; DLD-1, 100 μM
  Percent Growth (Mean ± SEM, n = 2): −79 ± 5%
[2]; DLD-1, semi-quantitative, nonlinear regression
  TGI (Total Growth Inhibition): 12 µM
[2]; read-out: IC50 (50% Inhibition Concentration), DLD-1, semi-quantitative, nonlinear regression
  IC50: 3.6 µM
[2]; read-out: LC50 (50% Lethal Concentration), DLD-1, semi-quantitative, nonlinear regression
  CC50: 41 µM
[3]; 100, 10 and 1 μM (≧30%)
  inhibition of tube formation relative to the vehicle-treated controls: significant inhibition
[3]; 0.01 μM
  %, Inhibition of the total tube length (Mean ± SEM, n = 2): 1 ± 1%
[3]; 0.1 μM
  %, Inhibition of the total tube length (Mean ± SEM, n = 2): 3 ± 4%
[3]; 1 μM
  %, Inhibition of the total tube length (Mean ± SEM, n = 2): 88 ± 6^a,b %
[3]; 10 μM
  %, Inhibition of the total tube length (Mean ± SEM, n = 2): 100 ± 0^a %
[3]; 100 μM
  %, Inhibition of the total tube length (Mean ± SEM, n = 2): 100 ± 0^a %
[3]; tube formation, significant inhibition ≧30%
  MIC (Minimum Inhibitory Concentration): 1 µM
